Structures are written as SMILES. Counter-ions that a name gives are not always drawn. Like-named read-outs stand apart in the source and are kept apart here.

The target of one assay is T1, human arginase I (ARG I) (Homo sapiens, UniProt P05089).
T1 sequence (P05089 1-322): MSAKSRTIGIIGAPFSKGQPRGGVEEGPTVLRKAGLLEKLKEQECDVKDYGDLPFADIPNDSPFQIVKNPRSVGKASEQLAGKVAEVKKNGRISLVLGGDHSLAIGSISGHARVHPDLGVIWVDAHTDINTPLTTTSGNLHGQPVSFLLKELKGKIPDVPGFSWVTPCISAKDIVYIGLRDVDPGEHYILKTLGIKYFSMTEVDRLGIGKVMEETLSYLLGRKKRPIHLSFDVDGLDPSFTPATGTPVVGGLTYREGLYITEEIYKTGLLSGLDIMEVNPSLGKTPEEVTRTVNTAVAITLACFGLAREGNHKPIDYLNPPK
The assay can be described thus: Inhibition of arginase I, spectrophotometric urea assay at 530 nm. The class given is biochemical. The essentials: (§1)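 IC50 was derived by regression of OD530 normalized to uninhibited-enzyme controls against log concentration. Urea from 60-min, 37 °C turnover of L-arginine with manganese sulfate was detected after acid o-phthaldialdehyde/primaquine quench and 10 min colour development. Arginase I and II came from 100 ng/ml stocks in pH 7.4 phosphate with ovalbumin.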

In another assay the target is T2, arginase II (ARG II) (Homo sapiens, UniProt P78540).
T2 sequence (P78540 23-354): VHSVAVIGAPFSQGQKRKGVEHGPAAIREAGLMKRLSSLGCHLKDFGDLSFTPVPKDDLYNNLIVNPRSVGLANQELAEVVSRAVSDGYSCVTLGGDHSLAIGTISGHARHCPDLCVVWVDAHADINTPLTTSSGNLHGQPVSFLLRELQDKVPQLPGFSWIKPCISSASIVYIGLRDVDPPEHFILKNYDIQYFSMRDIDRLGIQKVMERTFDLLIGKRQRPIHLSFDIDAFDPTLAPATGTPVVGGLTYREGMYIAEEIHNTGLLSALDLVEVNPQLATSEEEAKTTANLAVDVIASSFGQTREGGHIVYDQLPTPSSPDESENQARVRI
The assay can be described thus: Inhibition of arginase II, spectrophotometric urea assay at 530 nm. The class given is biochemical. The procedure, abridged:
as §1

The mark [1] stands for this setting: Formula II compounds, Table 2-A, read-out: Potency (ARG I).
Setting [2] is: Formula II compounds, Table 2-A, read-out: Potency (ARG).
Setting [3] is: Formula I compounds, Table 2, read-out: Potency (ARG I).
Setting [4] is: Formula I compounds, Table 2, read-out: Potency (ARG II).

In the case of `NC(CCCCB(O)O)(C(=O)O)C1CCN(Cc2ccc(OC(F)(F)F)cc2)CC1` (stereo not drawn) [Example 100-A, 2-amino-6-borono-2-(1-(4-(trifluoromethoxy)benzyl)piperidin-4-yl)hexanoic acid dihydrochloride], the IC50 at human arginase I (ARG I) (setting [1]) and on arginase II (ARG II) (setting [2]) was 0.1 to 250 nM throughout.
For `N[C@@H]1CC[C@H]([C@](N)(CCCCB(O)O)C(=O)O)C1` [15-A, (R)-2-amino-2-((1S,3R)-3-aminocyclopentyl)-6-boronohexanoic acid dihydrochloride], the IC50 at human arginase I (ARG I) (setting [1]) and on arginase II (ARG II) (setting [2]) was 0.1 to 250 nM in each case.
Take `NC(CCCCB(O)O)(C(=O)O)C1CCN(C(=S)Nc2ccc(Cl)cc2)C1` [35-A, 2-amino-6-borono-2-((S)-1-(4-chlorophenylcarbamothioyl)-pyrrolidin-3-yl)hexanoic acid hydrochloride]: the IC50 on human arginase I (ARG I) (setting [1]) and at arginase II (ARG II) (setting [2]) was 251 to 1000 nM each time.
Take `NC(CCCCB(O)O)C(=O)c1ccccc1` (stereo not drawn) [compound 114, 5-amino-6-oxo-6-phenylhexylboronic acid hydrochloride]: the IC50 at human arginase I (ARG I) (setting [3]) and on arginase II (ARG II) (setting [4]) was > 5000 nM throughout.
For `CC(=O)C1(c2ccccc2)CCN(CCC(N)(CCCCB(O)O)C(=O)O)CC1` (stereo not drawn) [compound 45, 2-(2-(4-acetyl-4-phenylpiperidin-1-yl)ethyl)-2-amino-6-boronohexanoic acid dihydrochloride], the figures for the IC50 on human arginase I (ARG I) and against arginase II (ARG II) were 1000 to 2000 nM and 2000 to 5000 nM, respectively.
For `NC(CCCCB(O)O)(C(=O)O)C1CCN(Cc2ccc(C(F)(F)F)cc2)CC1` (stereo not drawn) [Example 93-A, 2-amino-6-borono-2-(1-(4-(trifluoromethyl)benzyl)piperidin-4-yl)hexanoic acid], the IC50 on human arginase I (ARG I) (setting [1]) and at arginase II (ARG II) (setting [2]) was 251 to 1000 nM each time.
Consider `N[C@](CCCCB(O)O)(CCN1CCC(O)CC1)C(=O)O` [compound 4, (R)-2-amino-6-borono-2-(2-(4-hydroxypiperidin-1-yl)ethyl)hexanoic acid dihydrochloride], for which the IC50 on human arginase I (ARG I) (setting [3]) and at arginase II (ARG II) (setting [4]) was 251 to 1000 nM in each case.
Turning to `CC(C)CN[C@H]1C[C@@H](C(N)(CCCCB(O)O)C(=O)O)C1` (stereo partly drawn) [Example 83-A, cis-2-amino-6-borono-2-(3-(isobutylamino)cyclobutyl)hexanoic acid dihydrochloride], the IC50 on human arginase I (ARG I) (setting [1]) and at arginase II (ARG II) (setting [2]) was 0.1 to 250 nM in each case.
As for `CC(C)NCCC(N)(CCCCB(O)O)C(=O)O` (stereo not drawn) [compound 55, 2-amino-6-borono-2-(2-(isopropylamino)ethyl)hexanoic acid dihydrochloride], the IC50 fell in the range of 0.1 to 250 nM on human arginase I (ARG I) (setting [3]) and 251 to 1000 nM on arginase II (ARG II) (setting [4]).
As to `NC(CCCCB(O)O)(C(=O)O)[C@H]1C[C@@H](NCc2ccc(Cl)cc2)C1` (stereo partly drawn) [Example 82-A, cis-2-amino-6-borono-2-(3-(4-chlorobenzylamino)cyclobutyl)hexanoic acid dihydrochloride], the IC50 on human arginase I (ARG I) (setting [1]) and at arginase II (ARG II) (setting [2]) was 0.1 to 250 nM in each case.
Regarding `NC(CCCCB(O)O)(C(=O)O)C1CCN(Cc2ccc(F)cc2)CC1` (stereo not drawn) [Example 94-A, 2-amino-6-borono-2-(1-(4-fluorobenzyl)piperidin-4-yl)hexanoic acid dihydrochloride], the IC50 on human arginase I (ARG I) (setting [1]) lay in the range of 0.1 to 250 nM; at arginase II (ARG II) (setting [2]), 251 to 1000 nM.
Regarding `NC(CCCCB(O)O)(CC1CN(Cc2ccc(Cl)c(Cl)c2)C1)C(=O)O` (stereo not drawn) [compound 117, 2-amino-6-borono-2-((1-(3,4-dichlorobenzyl)azetidin-3-yl)methyl)hexanoic acid dihydrochloride], the IC50 at human arginase I (ARG I) (setting [3]) lay within 251 to 1000 nM; on arginase II (ARG II) (setting [4]), 2000 to 5000 nM.
Take `NC(CCCCB(O)O)(C(=O)O)C1CCN(C(=O)NCc2ccc(Cl)cc2)CC1` (stereo not drawn) [31-A, 2-amino-6-borono-2-{1-[(4-chlorobenzyl)carbamoyl]-piperidin-4-yl}hexanoic acid hydrochloride]: the IC50 is 1000 to 2000 nM at human arginase I (ARG I) (setting [1]) and 2000 to 5000 nM at arginase II (ARG II) (setting [2]).
On to `CC(C)CN1Cc2ccccc2CC1CCC(N)(CCCCB(O)O)C(=O)O` (stereo not drawn) [compound 135, 2-amino-6-borono-2-(2-(2-isobutyl-1,2,3,4-tetrahydroisoquinolin-3-yl)ethyl)hexanoic acid dihydrochloride], for which the IC50 at human arginase I (ARG I) (setting [3]) was in the range of 0.1 to 250 nM; at arginase II (ARG II) (setting [4]), 251 to 1000 nM.
Taken in the same sequence, the figures for `CC(C)CCN1Cc2ccccc2CC1CCC(N)(CCCCB(O)O)C(=O)O` (stereo not drawn) [compound 133, 2-amino-6-borono-2-(2-(2-isopentyl-1,2,3,4-tetrahydroisoquinolin-3-yl)ethyl)hexanoic acid dihydrochloride] were 0.1 to 250 nM and 0.1 to 250 nM.
As for `NC(CCCCB(O)O)(C(=O)O)C1CCN(Cc2cc3c(cc2Cl)OCO3)CC1` (stereo not drawn) [Example 91-A, 2-amino-6-borono-2-(1-((6-chlorobenzo[d][1,3]dioxol-5-yl)methyl)piperidin-4-yl)hexanoic acid dihydrochloride], the IC50 was in the range of 0.1 to 250 nM on human arginase I (ARG I) (setting [1]) and 251 to 1000 nM at arginase II (ARG II) (setting [2]).
For `NC(CCCCB(O)O)(C(=O)O)[C@H]1C[C@@H](NCc2ccc(-c3ccccc3)cc2)C1` (stereo partly drawn) [Example 77-A, cis-2-amino-2-(3-(biphenyl-4-ylmethylamino)cyclobutyl)-6-boronohexanoic acid dihydrochloride] the same measures were 0.1 to 250 nM and 0.1 to 250 nM.
With `NC(CCCCB(O)O)(CCN1CCN(c2ccccc2)CC1)C(=O)O` (stereo not drawn) [compound 76, 2-amino-6-borono-2-(2-(4-phenylpiperazin-1-yl)ethyl)hexanoic acid dihydrochloride], the IC50 on human arginase I (ARG I) (setting [3]) and on arginase II (ARG II) (setting [4]) was > 5000 nM throughout.
For the compound `NC(CCCCB(O)O)(CCN1CCN(c2ncccn2)CC1)C(=O)O` (stereo not drawn) [compound 17, 2-Amino-6-borono-2-[2-(4-pyrimidin-2-yl-piperazin-1-yl)ethyl]-hexanoic acid trihydrochloride], the IC50 on human arginase I (ARG I) (setting [3]) and at arginase II (ARG II) (setting [4]) was 2000 to 5000 nM each time.
For `NC(CCCCB(O)O)(C(=O)O)C1CCN(CCCc2ccc(Cl)cc2)CC1` (stereo not drawn) [Example 46-A, 2-amino-6-borono-2-(1-(3-(4-chlorophenyl)propyl)piperidin-4-yl)hexanoic acid], the IC50 at human arginase I (ARG I) (setting [1]) and at arginase II (ARG II) (setting [2]) was 0.1 to 250 nM each time.
`NC(CCCCB(O)O)(C(=O)O)C1CCN(c2ccc(Cl)cn2)CC1` (stereo not drawn) [Example 85-A, 2-amino-6-borono-2-(1-(5-chloropyridin-2-yl)piperidin-4-yl)hexanoic acid hydrochloride]: the IC50 on human arginase I (ARG I) (setting [1]) lay within 1000 to 2000 nM; on arginase II (ARG II) (setting [2]), 251 to 1000 nM.
Taken in the same sequence, the figures for `NC(CCCCB(O)O)(C(=O)O)C1CCN(C(=O)Cc2ccc(Cl)cc2)CC1` (stereo not drawn) [29-A, 2-amino-6-borono-2-{1-[(4-chlorophenyl)acetyl]-piperidin-4-yl}hexanoic acid hydrochloride] were 1000 to 2000 nM and > 5000 nM.
For `NC(CCCCB(O)O)(C(=O)O)C1CCN(c2ncc(C(F)(F)F)cc2Cl)CC1` (stereo not drawn) [10-A, 2-amino-6-borono-2-(1-(3-chloro-5-(trifluoromethyl)pyridin-2-yl)piperidin-4-yl)hexanoic acid dihydrochloride] the same measures were 2000 to 5000 nM and 2000 to 5000 nM.
In the case of `NC(CCCCB(O)O)(C(=O)O)C1CCN(Cc2ccccc2C(F)(F)F)CC1` (stereo not drawn) [Example 53-A, 2-amino-6-borono-2-(1-(2-(trifluoromethyl)benzyl)piperidin-4-yl)hexanoic acid dihydrochloride], the IC50 at human arginase I (ARG I) (setting [1]) and on arginase II (ARG II) (setting [2]) was 251 to 1000 nM each time.

The values above are taken from patent US9994594B2, “Inhibitors of arginase and their therapeutic applications” (MARS, INCORPORATED, priority 2010, dated 2018).
